Assay results from ChEMBL document CHEMBL1909046, “DrugMatrix in vitro pharmacology data”.

What was measured:
[1] = DRUGMATRIX: Calcium Channel Type L, Phenylalkylamine radioligand binding (ligand: [3H] (-)-Desmethoxyverapamil (D-888)); type: cell membranes, Rattus norvegicus, Wistar, Brain, Membrane; conditions: Not Active = under 50% inhibition at 10 µM
[2] = target: Mitogen-activated protein kinase 3 (Homo sapiens, UniProt P27361); assay: DRUGMATRIX: Protein Serine/Threonine Kinase, ERK1 enzyme inhibition (substrate: Myelin Basic Protein); parameters: species or system Escherichia coli; conditions: Not Active = under 50% inhibition at 10 µM
[3] = target: T1, Estrogen receptor (Homo sapiens, UniProt P03372); conditions: sf9; also: in other assays of this panel Not Active means under 50% inhibition at 10 µM
T1 sequence (P03372 whole entry): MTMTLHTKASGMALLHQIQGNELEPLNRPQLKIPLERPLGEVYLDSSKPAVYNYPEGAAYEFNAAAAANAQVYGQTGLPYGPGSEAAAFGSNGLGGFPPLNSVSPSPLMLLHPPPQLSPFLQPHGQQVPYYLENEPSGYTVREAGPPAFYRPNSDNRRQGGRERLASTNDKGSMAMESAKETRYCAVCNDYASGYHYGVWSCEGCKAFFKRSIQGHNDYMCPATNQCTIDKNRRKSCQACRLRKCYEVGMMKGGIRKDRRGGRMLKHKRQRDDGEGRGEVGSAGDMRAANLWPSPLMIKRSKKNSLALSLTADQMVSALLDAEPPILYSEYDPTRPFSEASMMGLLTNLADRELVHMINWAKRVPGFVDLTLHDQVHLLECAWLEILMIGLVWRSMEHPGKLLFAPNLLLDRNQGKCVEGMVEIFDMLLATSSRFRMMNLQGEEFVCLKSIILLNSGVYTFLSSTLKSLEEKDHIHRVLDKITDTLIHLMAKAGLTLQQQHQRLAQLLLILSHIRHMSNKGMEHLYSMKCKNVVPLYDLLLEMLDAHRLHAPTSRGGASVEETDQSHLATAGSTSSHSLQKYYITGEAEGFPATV

[4] = DRUGMATRIX: Interleukin IL-1 radioligand binding (ligand: [125I] interleukin 1beta); type: cell membranes, Membrane; conditions: nih3t3; Not Active = under 50% inhibition at 10 µM
[5] = DRUGMATRIX: Potassium Channel [KATP] radioligand binding (ligand: [3H] Glyburide); type: cell membranes, Membrane; conditions: hit-t15; Not Active = under 50% inhibition at 10 µM
[6] = target: T2, Cholecystokinin receptor type A (Homo sapiens, UniProt P32238); type: cell membranes, Membrane; conditions: 1321-n1; also: in other assays of this panel Not Active means under 50% inhibition at 10 µM
T2 sequence (P32238 whole entry): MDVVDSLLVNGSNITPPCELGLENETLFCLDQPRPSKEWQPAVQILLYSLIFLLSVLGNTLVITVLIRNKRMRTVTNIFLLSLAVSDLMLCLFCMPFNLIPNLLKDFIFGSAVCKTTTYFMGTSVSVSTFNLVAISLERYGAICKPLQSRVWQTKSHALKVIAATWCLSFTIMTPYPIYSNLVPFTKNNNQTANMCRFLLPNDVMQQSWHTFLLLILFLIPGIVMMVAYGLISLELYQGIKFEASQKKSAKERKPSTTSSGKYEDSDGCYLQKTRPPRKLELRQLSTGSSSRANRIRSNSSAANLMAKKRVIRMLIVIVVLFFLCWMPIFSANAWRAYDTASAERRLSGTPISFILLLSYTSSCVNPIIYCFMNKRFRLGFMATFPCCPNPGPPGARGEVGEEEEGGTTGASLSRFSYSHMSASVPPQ

[7] = target: T3, Cysteinyl leukotriene receptor 1 (Homo sapiens, UniProt Q9Y271); type: cell membranes, CHO-K1, Membrane; conditions: cho-k1; also: in other assays of this panel Not Active means under 50% inhibition at 10 µM
T3 sequence (Q9Y271 whole entry): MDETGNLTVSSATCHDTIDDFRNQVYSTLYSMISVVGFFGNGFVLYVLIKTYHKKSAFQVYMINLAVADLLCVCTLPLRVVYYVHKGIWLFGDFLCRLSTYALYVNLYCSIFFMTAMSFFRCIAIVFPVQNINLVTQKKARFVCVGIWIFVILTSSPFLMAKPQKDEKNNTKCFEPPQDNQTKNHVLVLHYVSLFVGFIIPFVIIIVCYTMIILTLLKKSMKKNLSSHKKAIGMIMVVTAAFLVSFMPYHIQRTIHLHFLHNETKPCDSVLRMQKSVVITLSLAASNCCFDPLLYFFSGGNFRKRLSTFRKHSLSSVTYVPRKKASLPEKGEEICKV

[8] = target: Vasopressin V1a receptor (Homo sapiens, UniProt P37288); type: cell membranes, Membrane; conditions: hek293; also: in other assays of this panel Not Active means under 50% inhibition at 10 µM
[9] = DRUGMATRIX: Sigma2 radioligand binding (ligand: [3H] Ifenprodil); type: cell membranes, Rattus norvegicus, Wistar, Brain, Membrane; conditions: Not Active = under 50% inhibition at 10 µM
[10] = target: Melanocortin receptor 4 (Homo sapiens, UniProt P32245); type: cell membranes, Membrane; conditions: hek293; also: in other assays of this panel Not Active means under 50% inhibition at 10 µM
[11] = target: T4, 5-hydroxytryptamine receptor 2C (Homo sapiens, UniProt P28335); assay: DRUGMATRIX: Serotonin (5-Hydroxytryptamine) 5-HT2C radioligand binding (ligand: [3H] Mesulergine); type: cell membranes, CHO-K1, Membrane; conditions: cho-k1; Not Active = under 50% inhibition at 10 µM
T4 sequence (P28335 whole entry): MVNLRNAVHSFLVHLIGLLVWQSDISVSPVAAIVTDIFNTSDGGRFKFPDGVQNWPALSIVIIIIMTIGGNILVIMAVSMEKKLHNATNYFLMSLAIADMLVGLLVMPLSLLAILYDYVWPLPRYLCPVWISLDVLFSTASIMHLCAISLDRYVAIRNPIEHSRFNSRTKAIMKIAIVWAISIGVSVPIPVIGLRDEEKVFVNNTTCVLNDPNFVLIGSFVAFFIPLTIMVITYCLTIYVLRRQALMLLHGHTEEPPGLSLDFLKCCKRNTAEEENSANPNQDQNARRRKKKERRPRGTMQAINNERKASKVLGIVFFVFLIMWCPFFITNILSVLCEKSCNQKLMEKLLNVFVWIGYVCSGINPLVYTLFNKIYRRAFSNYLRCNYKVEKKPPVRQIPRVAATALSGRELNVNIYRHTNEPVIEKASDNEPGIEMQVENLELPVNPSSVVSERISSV

[12] = target: Cytochrome P450 3A4 (Homo sapiens, UniProt P08684); conditions: bti-tn-5b1-4; also: in other assays of this panel Not Active means under 50% inhibition at 10 µM
[13] = target: Matrix metalloproteinase-9 (Homo sapiens, UniProt P14780); type: cell-based
Chain of Matrix metalloproteinase-9 (P14780 whole entry): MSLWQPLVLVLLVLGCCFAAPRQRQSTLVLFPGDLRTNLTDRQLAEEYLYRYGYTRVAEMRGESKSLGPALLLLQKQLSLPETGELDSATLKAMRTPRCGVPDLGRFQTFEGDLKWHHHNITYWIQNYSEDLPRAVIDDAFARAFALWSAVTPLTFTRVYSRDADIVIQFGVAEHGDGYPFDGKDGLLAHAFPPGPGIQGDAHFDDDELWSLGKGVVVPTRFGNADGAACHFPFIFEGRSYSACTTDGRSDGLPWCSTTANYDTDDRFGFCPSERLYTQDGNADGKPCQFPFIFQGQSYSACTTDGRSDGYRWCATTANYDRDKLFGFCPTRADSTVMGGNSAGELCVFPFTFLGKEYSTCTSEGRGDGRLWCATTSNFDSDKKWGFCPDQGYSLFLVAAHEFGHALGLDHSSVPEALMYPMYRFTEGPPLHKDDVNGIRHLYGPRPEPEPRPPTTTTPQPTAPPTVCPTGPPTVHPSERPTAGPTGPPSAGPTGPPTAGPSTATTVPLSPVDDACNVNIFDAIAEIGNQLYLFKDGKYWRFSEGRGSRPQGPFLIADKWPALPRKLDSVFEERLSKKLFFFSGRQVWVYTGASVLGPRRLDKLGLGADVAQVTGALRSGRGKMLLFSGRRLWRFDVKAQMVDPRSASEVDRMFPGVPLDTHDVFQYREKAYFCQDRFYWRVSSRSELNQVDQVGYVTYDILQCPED

Chain of Cytochrome P450 3A4 (P08684 whole entry): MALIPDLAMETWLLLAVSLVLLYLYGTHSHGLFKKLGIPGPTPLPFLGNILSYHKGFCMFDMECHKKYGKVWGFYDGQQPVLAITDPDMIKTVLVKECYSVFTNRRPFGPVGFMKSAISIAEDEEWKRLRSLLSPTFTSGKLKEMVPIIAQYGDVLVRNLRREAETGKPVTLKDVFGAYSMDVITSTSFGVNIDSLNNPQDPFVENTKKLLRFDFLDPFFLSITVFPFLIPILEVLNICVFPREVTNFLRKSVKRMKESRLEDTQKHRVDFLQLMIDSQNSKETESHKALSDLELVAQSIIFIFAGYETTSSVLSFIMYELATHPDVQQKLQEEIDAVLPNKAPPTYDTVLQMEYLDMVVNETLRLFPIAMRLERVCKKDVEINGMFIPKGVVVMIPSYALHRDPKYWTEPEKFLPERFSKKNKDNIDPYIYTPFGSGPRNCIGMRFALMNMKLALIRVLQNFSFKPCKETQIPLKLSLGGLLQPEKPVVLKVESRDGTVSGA
Chain of Vasopressin V1a receptor (P37288 whole entry): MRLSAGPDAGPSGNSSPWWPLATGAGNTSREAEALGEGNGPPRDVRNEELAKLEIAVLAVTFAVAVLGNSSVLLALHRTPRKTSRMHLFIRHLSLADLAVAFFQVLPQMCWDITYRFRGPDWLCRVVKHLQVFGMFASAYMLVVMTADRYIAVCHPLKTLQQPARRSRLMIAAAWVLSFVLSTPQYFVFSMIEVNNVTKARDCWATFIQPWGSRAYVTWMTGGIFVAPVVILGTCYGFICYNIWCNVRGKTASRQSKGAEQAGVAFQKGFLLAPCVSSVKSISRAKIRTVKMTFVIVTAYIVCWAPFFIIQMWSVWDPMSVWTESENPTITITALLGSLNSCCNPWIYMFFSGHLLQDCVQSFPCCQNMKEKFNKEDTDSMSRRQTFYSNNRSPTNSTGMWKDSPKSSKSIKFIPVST
Chain of Melanocortin receptor 4 (P32245 whole entry): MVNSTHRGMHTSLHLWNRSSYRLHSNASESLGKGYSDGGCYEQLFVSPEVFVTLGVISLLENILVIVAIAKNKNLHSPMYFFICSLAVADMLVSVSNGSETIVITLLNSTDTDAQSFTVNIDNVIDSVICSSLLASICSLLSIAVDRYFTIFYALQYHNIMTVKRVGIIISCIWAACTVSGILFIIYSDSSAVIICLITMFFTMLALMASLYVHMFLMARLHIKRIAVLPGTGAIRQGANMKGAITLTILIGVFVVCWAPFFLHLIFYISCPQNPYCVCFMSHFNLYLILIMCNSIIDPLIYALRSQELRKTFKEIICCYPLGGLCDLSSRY
Chain of Mitogen-activated protein kinase 3 (P27361 whole entry): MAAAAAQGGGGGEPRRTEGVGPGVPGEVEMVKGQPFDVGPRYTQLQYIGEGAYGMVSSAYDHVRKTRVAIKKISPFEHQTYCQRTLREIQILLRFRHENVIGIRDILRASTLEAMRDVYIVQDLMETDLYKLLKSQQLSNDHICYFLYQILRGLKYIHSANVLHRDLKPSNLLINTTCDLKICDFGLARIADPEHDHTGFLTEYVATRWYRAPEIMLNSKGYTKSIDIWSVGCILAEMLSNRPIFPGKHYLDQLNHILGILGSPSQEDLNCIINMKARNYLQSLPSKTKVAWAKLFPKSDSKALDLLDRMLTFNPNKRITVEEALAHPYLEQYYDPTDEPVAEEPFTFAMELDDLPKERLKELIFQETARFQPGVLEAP

N#C[C@H](O[C@@H]1O[C@H](CO[C@@H]2O[C@H](CO)[C@@H](O)[C@H](O)[C@H]2O)[C@@H](O)[C@H](O)[C@H]1O)c1ccccc1 [AMYGDALIN]
Not Active: IC50 [1] | Ki [1] | IC50 [2] | IC50 [3] | IC50 [4] | Ki [4] | IC50 [5] | Ki [5] | IC50 [6] | IC50 [7] | IC50 [8] | IC50 [9] | Ki [9] | IC50 [10] | IC50 [11] | IC50 [12] | Ki [12] | IC50 [13]

C=C1[C@@H]2CCC3[C@@](CC[C@@H]4[C@H](C(=O)O)C[C@@H](O[C@@H]5O[C@H](CO)[C@@H](OS(=O)(=O)[O-])[C@H](OS(=O)(=O)[O-])[C@H]5OC(=O)CC(C)C)C[C@@]34C)(C2)[C@@H]1O.[K+].[K+] (some centres undefined) [ATRACTYLOSIDE]
Not Active: IC50 [1] | Ki [1] | IC50 [2] | IC50 [3] | IC50 [4] | Ki [4] | IC50 [5] | Ki [5] | IC50 [6] | IC50 [7] | IC50 [8] | IC50 [9] | Ki [9] | IC50 [10] | IC50 [11] | IC50 [12] | Ki [12] | IC50 [13]

CCCC[C@@H](CC)COC(=O)c1ccccc1C(=O)OC[C@@H](CC)CCCC [BIS(2-ETHYLHEXYL)PHTHALATE]
Not Active: IC50 [1] | Ki [1] | IC50 [2] | IC50 [3] | IC50 [4] | Ki [4] | IC50 [5] | Ki [5] | IC50 [6] | IC50 [7] | IC50 [8] | IC50 [9] | Ki [9] | IC50 [10] | IC50 [11] | IC50 [12] | Ki [12] | IC50 [13]
